Two compounds from ChEMBL document CHEMBL1140470, “Synthesis and in vitro evaluation of a selective antagonist and the corresponding radioligand for the prostaglandin D2 receptor CRTH2” (Bioorg Med Chem Lett, 2007) can be followed below.

A value given as a limit tells only on which side of the number the result lay.

The target in experiment [1] is T1, Prostaglandin D2 receptor 2 (Homo sapiens, UniProt Q9Y5Y4).
T1 sequence (Q9Y5Y4 whole entry): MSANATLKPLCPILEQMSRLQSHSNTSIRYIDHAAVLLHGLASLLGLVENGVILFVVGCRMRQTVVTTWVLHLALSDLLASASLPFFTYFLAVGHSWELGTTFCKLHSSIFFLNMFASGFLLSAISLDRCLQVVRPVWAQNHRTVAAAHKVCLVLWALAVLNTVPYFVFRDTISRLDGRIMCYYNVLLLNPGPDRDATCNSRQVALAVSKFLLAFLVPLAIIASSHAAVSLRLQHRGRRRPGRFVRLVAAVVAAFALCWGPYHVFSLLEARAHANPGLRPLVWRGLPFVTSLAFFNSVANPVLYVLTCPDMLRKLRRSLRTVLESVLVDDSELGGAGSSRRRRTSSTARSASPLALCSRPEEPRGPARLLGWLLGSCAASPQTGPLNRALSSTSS
In words: Displacement of [3H]PGD2 from human CRTH2 receptor. In general terms: In a radioligand displacement assay an active substance lowers the binding of a labelled ligand.

Experiment [2] concerns the target T1, Prostaglandin D2 receptor 2. In words: Antagonist activity at human CRTH2 receptor assessed as inhibition of PGD2-induced signaling by inositol-phosphate assay. It counts as functional.
For experiment [3], the target named is T2, Prostaglandin D2 receptor 2 (Homo sapiens) (UniProt Q9Y5Y4).
T2 sequence (whole entry): T1 sequence (Q9Y5Y4 whole entry)
The experiment can be described thus: (§1) Displacement of [3H]TRQ11238 from human CRTH2 receptor expressed in HEK293 cells. It counts as cell-based. Conditions: tested as the 3H-labelled form.

The test system of another experiment is CRTH2 (Homo sapiens). In words: Selectivity for CRTH2 over DP and TP receptors.
The target of experiment [4] is T1, Prostaglandin D2 receptor 2. The experiment is described as §1. It counts as cell-based.

Take `O=C(O)Cn1cc(CCN(Cc2ccccc2)S(=O)(=O)c2ccc(F)cc2)c2ccccc21`: the Ki (commonly a measure of affinity in units of concentration, obtained from inhibition or displacement) in experiment [1] is 0.631 nM. Besides, the half-maximal inhibitory concentration (IC50) (in general, the point on the concentration scale where inhibition reaches its midpoint) in experiment [2] was 3.98 nM. Also, in experiment [3], the Bmax was 2790 fmol/mg. For the same compound, the Selectivity ratio in the experiment with CRTH2 (Homo sapiens) is more than 1000.

Turning to `[3H]c1cc([3H])cc(CN(CCc2cn(CC(=O)O)c3ccccc23)S(=O)(=O)c2ccc(F)cc2)c1`, the dissociation constant (Kd) (commonly the constant that tells how readily two partners part at equilibrium) in experiment [4] was 1 nM.
